Results: patent US12441768B2, “Compositions and methods for treating endometriosis” (EndoMet Biosciences, Inc., priority 2018, dated 2025)
Where a SMILES comes first, the peptide text is derived from it.

What was measured:
[1] = % Viability non-Wnt responsive cells
[2] = target: Wnt-responsive promoter (TCF/LEF); experiment: Wnt-dependent luciferase reporter assay; assay type: cell-based, murine
Summary of the method: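 Murine 3T3 fibroblasts carrying a TCF/LEF-driven luciferase reporter, stimulated with Wnt3a in the presence of increasing peptide concentrations or vehicle. Luminescence inhibition gave EC50 values in uM.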

β-catenin = target: T1, β-catenin (Homo sapiens, UniProt P35222); experiment: KD50 measurement using competitive fluorescence polarization (FP) with labelled TCF4; assay type: binding; settings: fluorescence polarization, β-catenin; for Kd: read-out: β-Cat FP KD
T1 sequence (P35222 1-781): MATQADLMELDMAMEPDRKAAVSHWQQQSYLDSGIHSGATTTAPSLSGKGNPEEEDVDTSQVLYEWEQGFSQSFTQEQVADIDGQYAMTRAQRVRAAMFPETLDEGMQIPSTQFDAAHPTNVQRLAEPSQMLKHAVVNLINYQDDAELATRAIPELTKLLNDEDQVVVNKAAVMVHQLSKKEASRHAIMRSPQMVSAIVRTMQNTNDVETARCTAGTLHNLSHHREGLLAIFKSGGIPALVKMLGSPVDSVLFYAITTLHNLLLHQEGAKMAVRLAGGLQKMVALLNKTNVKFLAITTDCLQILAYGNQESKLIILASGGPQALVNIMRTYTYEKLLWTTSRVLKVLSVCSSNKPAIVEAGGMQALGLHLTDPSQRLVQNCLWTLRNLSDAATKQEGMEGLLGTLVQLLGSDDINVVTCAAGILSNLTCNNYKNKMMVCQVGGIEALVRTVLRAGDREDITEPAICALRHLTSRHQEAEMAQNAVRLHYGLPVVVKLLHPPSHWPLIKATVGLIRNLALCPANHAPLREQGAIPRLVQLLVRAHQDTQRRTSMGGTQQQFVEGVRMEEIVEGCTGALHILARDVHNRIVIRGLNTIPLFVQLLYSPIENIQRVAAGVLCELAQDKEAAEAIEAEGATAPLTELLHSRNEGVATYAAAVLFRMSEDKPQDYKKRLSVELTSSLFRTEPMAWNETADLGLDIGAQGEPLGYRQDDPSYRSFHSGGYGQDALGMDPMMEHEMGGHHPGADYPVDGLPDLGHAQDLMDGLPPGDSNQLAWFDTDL
Summary of the method: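 First, β-catenin at 100 nM is mixed with 5 nM labelled TCF4 at room temperature. Next, compound is added across serial dilutions (10 nM to 30 uM). Finally, fluorescence polarization is measured (ex 470 nm, em 520 nm); experiments are done three times.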

Compound	EC50 [2]	β-Cat FP Hill slope (β-catenin)	Kd (β-catenin)	viability [1]
CC[C@H](C)[C@H](NC(=O)[C@H](Cc1c[nH]c2ccccc12)NC(=O)[C@@H](N)CCSC)C(=O)N[C@@H](CC(C)C)C(=O)N[C@H](C(=O)N[C@@H](CS)C(=O)NC(C)(Cc1ccccc1)C(=O)N[C@@H](Cc1c[nH]c2ccccc12)C(=O)NCC(=O)O)[C@@H](C)CC (stereo partly shown) [compound 121] (HELM PEPTIDE1{M.W.I.L.I.C.[CC(Cc1ccccc1)(N[*:1])C(=O)[*:2]].W.G}$$$$V2.0)	< 7.5 µM	0.74	< 0.4 µM	150%
CC[C@H](C)[C@H](NC(=O)[C@H](CC(C)C)NC(=O)[C@@H](NC(=O)[C@H](Cc1c[nH]c2ccccc12)NC(=O)[C@@H](N)Cc1c[nH]c2ccccc12)[C@@H](C)CC)C(=O)N[C@@H](CO)C(=O)N[C@@H](Cc1ccccc1)C(=O)N[C@@H](Cc1c[nH]c2ccccc12)C(=O)NCC(=O)O [compound 127] (H-WWILISFWG-OH)	7.5 to 15 µM	1	0.4 to 1 µM	120%
CC[C@H](C)[C@H](NC(=O)[C@H](Cc1c[nH]c2ccccc12)NC(=O)[C@@H](N)CCSC)C(=O)NC(C)(CC(C)C)C(=O)N[C@H](C(=O)N[C@@H](CS)C(=O)N[C@@H](Cc1ccccc1)C(=O)N[C@@H](Cc1c[nH]c2ccccc12)C(=O)NCC(=O)O)[C@@H](C)CC (stereo partly shown) [compound 130] (HELM PEPTIDE1{M.W.I.[CC(C)CC(C)(N[*:1])C(=O)[*:2]].I.C.F.W.G}$$$$V2.0)	22.5 to 30 µM	0.72	1 to 10 µM	98.3%
CC[C@H](C)[C@H](NC(=O)[C@H](CC(C)C)NC(=O)C(C)(Cc1ccccc1)NC(=O)[C@H](Cc1c[nH]c2ccccc12)NC(=O)[C@@H](N)CCSC)C(=O)N[C@@H](CS)C(=O)N[C@@H](Cc1ccccc1)C(=O)N[C@@H](Cc1c[nH]c2ccccc12)C(=O)NCC(=O)O (stereo partly shown) [compound 131] (HELM PEPTIDE1{M.W.[CC(Cc1ccccc1)(N[*:1])C(=O)[*:2]].L.I.C.F.W.G}$$$$V2.0)	7.5 to 15 µM	1.27	< 0.4 µM	93.1%
CC[C@H](C)[C@H](NC(=O)[C@H](CC(C)C)NC(=O)[C@@H](NC(=O)C(C)(Cc1c[nH]c2ccccc12)NC(=O)[C@@H](N)CCSC)[C@@H](C)CC)C(=O)N[C@@H](CS)C(=O)N[C@@H](Cc1ccccc1)C(=O)N[C@@H](Cc1c[nH]c2ccccc12)C(=O)NCC(=O)O (stereo partly shown) [compound 132] (HELM PEPTIDE1{M.[CC(Cc1c[nH]c2ccccc12)(N[*:1])C(=O)[*:2]].I.L.I.C.F.W.G}$$$$V2.0)	7.5 to 15 µM	0.7	< 0.4 µM	102%
CC[C@H](C)[C@H](NC(=O)[C@H](CC(C)C)NC(=O)C(C)(Cc1ccccc1)NC(=O)[C@H](Cc1c[nH]c2ccccc12)NC(=O)[C@@H](N)CCSC)C(=O)N[C@@H](CO)C(=O)N[C@@H](Cc1ccccc1)C(=O)N[C@@H](Cc1c[nH]c2ccccc12)C(=O)NCC(=O)O (stereo partly shown) [compound 133] (HELM PEPTIDE1{M.W.[CC(Cc1ccccc1)(N[*:1])C(=O)[*:2]].L.I.S.F.W.G}$$$$V2.0)	> 30 µM	3	< 0.4 µM	95.4%

More lines, main results first:

EC50 [2]	β-Cat FP Hill slope (β-catenin)	Kd (β-catenin)	Compound	viability [1]
22.5 to 30 µM	1.55	< 0.4 µM	CC[C@H](C)[C@H](NC(=O)[C@H](CC(C)C)NC(=O)[C@@H](NC(=O)[C@H](Cc1c[nH]c2ccccc12)NC(=O)[C@H](CCSC)NC(=O)[C@@H](N)CCCCN)[C@@H](C)CC)C(=O)N[C@@H](CO)C(=O)N[C@@H](Cc1ccccc1)C(=O)N[C@@H](Cc1c[nH]c2ccccc12)C(=O)NCC(=O)O [compound 122] (H-KMWILISFWG-OH)	113%
< 7.5 µM	1.07	< 0.4 µM	CC[C@H](C)[C@H](NC(=O)[C@H](CC(C)C)NC(=O)[C@@H](NC(=O)[C@H](Cc1c[nH]c2ccccc12)NC(=O)[C@H](CCSC)NC(=O)[C@@H](N)Cc1c[nH]cn1)[C@@H](C)CC)C(=O)N[C@@H](CO)C(=O)N[C@@H](Cc1ccccc1)C(=O)N[C@@H](Cc1c[nH]c2ccccc12)C(=O)NCC(=O)O [compound 123] (H-HMWILISFWG-OH)	107%
7.5 to 15 µM		> 30 µM	CC[C@H](C)[C@H](NC(=O)[C@H](CC(C)C)NC(=O)[C@@H](NC(=O)[C@H](Cc1c[nH]c2ccccc12)NC(=O)[C@H](CCSC)NC(=O)[C@@H](N)CCCNC(=N)N)[C@@H](C)CC)C(=O)N[C@@H](CO)C(=O)N[C@@H](Cc1ccccc1)C(=O)N[C@@H](Cc1c[nH]c2ccccc12)C(=O)NCC(=O)O [compound 124] (H-RMWILISFWG-OH)	102%
22.5 to 30 µM	0.7	0.4 to 1 µM	CC[C@H](C)[C@H](NC(=O)[C@H](CC(C)C)NC(=O)[C@@H](NC(=O)[C@H](Cc1c[nH]c2ccccc12)NC(=O)[C@@H](N)CCCCN)[C@@H](C)CC)C(=O)N[C@@H](CO)C(=O)N[C@@H](Cc1ccccc1)C(=O)N[C@@H](Cc1c[nH]c2ccccc12)C(=O)NCC(=O)O [compound 125] (H-KWILISFWG-OH)	113%
< 7.5 µM	0.99	< 0.4 µM	CC[C@H](C)[C@H](NC(=O)[C@H](CC(C)C)NC(=O)[C@@H](NC(=O)[C@H](Cc1c[nH]c2ccccc12)NC(=O)[C@@H](N)Cc1c[nH]cn1)[C@@H](C)CC)C(=O)N[C@@H](CO)C(=O)N[C@@H](Cc1ccccc1)C(=O)N[C@@H](Cc1c[nH]c2ccccc12)C(=O)NCC(=O)O [compound 126] (H-HWILISFWG-OH)	111%
7.5 to 15 µM	2.15	0.4 to 1 µM	CC[C@H](C)[C@H](NC(=O)[C@H](Cc1c[nH]c2ccccc12)NC(=O)[C@@H](N)CCSC)C(=O)N[C@@H](CC(C)C)C(=O)N[C@H](C(=O)N[C@@H](CO)C(=O)NC(C)(Cc1ccccc1)C(=O)N[C@@H](Cc1c[nH]c2ccccc12)C(=O)NCC(=O)O)[C@@H](C)CC (stereo partly shown) [compound 128] (HELM PEPTIDE1{M.W.I.L.I.S.[CC(Cc1ccccc1)(N[*:1])C(=O)[*:2]].W.G}$$$$V2.0)	132%
< 7.5 µM	0.87	0.4 to 1 µM	CC[C@H](C)[C@H](NC(=O)[C@H](CC(C)C)NC(=O)[C@@H](NC(=O)[C@H](Cc1c[nH]c2ccccc12)NC(=O)[C@@H](N)CCSC)[C@@H](C)CC)C(=O)N[C@@H](CO)C(=O)N[C@@H](CO)C(=O)N[C@@H](Cc1c[nH]c2ccccc12)C(=O)NCC(=O)O [compound 129] (H-MWILISSWG-OH)	134%
> 30 µM	1.47	1 to 10 µM	CC[C@H](C)[C@H](NC(=O)[C@H](CC(C)C)NC(=O)[C@@H](NC(=O)C(C)(Cc1c[nH]c2ccccc12)NC(=O)[C@@H](N)CCSC)[C@@H](C)CC)C(=O)N[C@@H](CO)C(=O)N[C@@H](Cc1ccccc1)C(=O)N[C@@H](Cc1c[nH]c2ccccc12)C(=O)NCC(=O)O (stereo partly shown) [compound 134] (HELM PEPTIDE1{M.[CC(Cc1c[nH]c2ccccc12)(N[*:1])C(=O)[*:2]].I.L.I.S.F.W.G}$$$$V2.0)	97.9%
